Consider 21 compounds from patent US9957264B2 (Merck Sharp & Dohme Corp., priority 2013, dated 2018).

Experiment [1] deals with JAK2 (recombinant purified GST-tagged catalytic domain) (Homo sapiens (Human), UniProt O60674). The experiment is described as follows: Jak Biochemical HTRF Assay (JAK2). Conditions: [ATP] 8.5 μM. On the technique in general: TR-FRET usually uses a lanthanide donor and a delayed reading to cut background.
Experiment [2] concerns the target JAK1 (recombinant purified GST-tagged catalytic domain) (Homo sapiens (Human), UniProt P23458). Kind of experiment: Jak Biochemical HTRF Assay (JAK1). The settings on record: [ATP] 31.8 μM. Put shortly:
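HTRF format, biotinylated peptide substrate; ATP-initiated reaction 120 min RT; EDTA quench + streptavidin-Dylight 650/Eu-anti-pY20 detection, 60 min RT; signal = 665/615 ratio ×10,000; normalized % inhibition, 4-parameter fit → IC50.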

JAK1 (recombinant purified GST-tagged catalytic domain), sequence (P23458 875-1153): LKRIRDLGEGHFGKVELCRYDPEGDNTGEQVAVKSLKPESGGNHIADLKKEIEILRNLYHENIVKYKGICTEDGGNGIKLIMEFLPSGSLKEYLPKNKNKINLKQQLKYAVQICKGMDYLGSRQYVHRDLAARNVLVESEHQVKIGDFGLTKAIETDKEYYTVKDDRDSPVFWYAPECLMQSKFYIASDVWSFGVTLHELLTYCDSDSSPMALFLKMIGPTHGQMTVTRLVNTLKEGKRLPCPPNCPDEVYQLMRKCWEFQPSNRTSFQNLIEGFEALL
JAK2 (recombinant purified GST-tagged catalytic domain), sequence (O60674 849-1124): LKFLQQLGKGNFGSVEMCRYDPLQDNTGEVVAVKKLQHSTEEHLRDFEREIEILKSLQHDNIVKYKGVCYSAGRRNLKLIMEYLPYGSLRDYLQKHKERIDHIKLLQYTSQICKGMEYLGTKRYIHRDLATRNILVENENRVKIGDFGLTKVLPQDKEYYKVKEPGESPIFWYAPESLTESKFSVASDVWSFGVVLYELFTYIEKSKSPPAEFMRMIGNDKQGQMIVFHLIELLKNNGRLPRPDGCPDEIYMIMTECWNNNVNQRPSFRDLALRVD

In general, IC50 refers to the concentration that gives 50% inhibition. As for `COC(=O)N1CCC(CC#N)(n2nc(Nc3ccc(S(=O)(=O)C(C)C)cc3)c3c(=O)[nH]ccc32)CC1` [Example 5-149, methyl 4-(cyanomethyl)-4-(3-((4-(isopropylsulfonyl)phenyl)amino)-4-oxo-4,5-dihydro-1H-pyrazolo[4,3-c]pyridin-1-yl)piperidine-1-carboxylate], the figures for the concentration for half-maximal inhibition (IC50) in experiment [1] and in experiment [2] were 0.23 nM and 0.12 nM, respectively.

As for `N#CC[C@]1(n2nc(Nc3ccc(Cl)cc3)c3c(=O)[nH]ccc32)CC[C@@H](Nc2ccccc2)CC1` [Example 18-13, Cis 2-(1-(3-((4-chlorophenyl)amino)-4-oxo-4,5-dihydro-1H-pyrazolo[4,3-c]pyridin-1-yl)-4-(phenylamino)cyclohexyl)acetonitrile], the half-inhibitory concentration (IC50) in experiment [1] is over 1500 nM; in experiment [2], 65 nM.

For `N#CC[C@]1(n2nc(Nc3ccc(Cl)c(F)c3)c3c(=O)[nH]ccc32)CC[C@@H](Nc2ccccc2)CC1` [Example 18-25, Cis 2-(1-(3-((4-chloro-3-fluorophenyl)amino)-4-oxo-4,5-dihydro-1H-pyrazolo[4,3-c]pyridin-1-yl)-4-(phenylamino)cyclohexyl)acetonitrile], the IC50 in experiment [1] is over 1500 nM; in experiment [2] it was 70.2 nM.

Turning to `CCNC(c1ccc(Nc2nn([C@]3(CC#N)CC[C@@H](C(=O)OC(C)(C)C)OC3)c3cc[nH]c(=O)c23)cc1)C(F)(F)F` (single isomer, unassigned) [Example 5-208, (2S,5S)-tert-butyl 5-(cyanomethyl)-5-(3-((4-((R or S)-1-(ethylamino)-2,2,2-trifluoroethyl)phenyl)amino)-4-oxo-4,5-dihydro-1H-pyrazolo[4,3-c]pyridin-1-yl)tetrahydro-2H-pyran-2-carboxylate], the values for the IC50 in experiment [1] and in experiment [2] were 0.31 nM and 0.24 nM, respectively.

Consider `Cc1cc(Nc2nn(C3(CC#N)CCN(c4cc(C(F)(F)F)ccn4)CC3)c3cc[nH]c(=O)c23)ccc1C(=O)N1CCC(F)(F)CC1` [Example 16-4, 2-(4-(3-(4-(4,4-difluoropiperidine-1-carbonyl)-3-methylphenylamino)-4-oxo-4,5-dihydropyrazolo[4,3-c]pyridin-1-yl)-1-(4-(trifluoromethyl)pyridin-2-yl)piperidin-4-yl)acetonitrile], for which the half-inhibitory concentration (IC50) in experiment [1] and in experiment [2] was 2.01 nM throughout.

Consider `CC(C)(C)NS(=O)(=O)c1ccc(Nc2nn([C@]3(CC#N)CCCOC3)c3cc[nH]c(=O)c23)cc1` [Example 5-184, N-tert-butyl-4-({1-[(3S)-3-(cyanomethyl)tetrahydro-2H-pyran-3-yl]-4-oxo-4,5-dihydro-1H-pyrazolo[4,3-c]pyridin-3-yl}amino) benzenesulfonamide], for which the IC50 in experiment [1] is 0.6 nM; in experiment [2], 0.2 nM.

Consider `Cc1cc(Nc2nn([C@@]3(CC#N)CCOC[C@H]3F)c3cc[nH]c(=O)c23)ccc1C(=O)N1CCOCC1` (single isomer, unassigned) [Example 5-257, 2-((3S,4S or 3R,4R)-3-fluoro-4-(3-(3-methyl-4-(morpholine-4-carbonyl)phenylamino)-4-oxo-4,5-dihydropyrazolo[4,3-c]pyridin-1-yl)-tetrahydro-2H-pyran-4-yl)acetonitrile], for which the concentration for half-maximal inhibition (IC50) was 3.17 nM in experiment [1] and 2.08 nM in experiment [2].

With `N#CC[C@]1(n2nc(Nc3ccc(Cl)cc3)c3c(=O)[nH]ccc32)CCOC1` (single isomer, unassigned) [Example 5-242, [(3S or 3R)-3-{3-[(4-chlorophenyl)amino]-4-oxo-4,5-dihydro-1H-pyrazolo[4,3-c]pyridin-1-yl}tetrahydrofuran-3-yl]acetonitrile], the IC50 was determined as 130 nM in experiment [1] and 14 nM in experiment [2].

On to `CN(C)S(=O)(=O)c1ccc(Nc2nn([C@@]3(CC#N)CCN(C(=O)OC(C)(C)C)C[C@H]3F)c3cc[nH]c(=O)c23)cc1` [Example 5-18, tert-butyl (3R,4R)-4-(cyanomethyl)-4-(3-{[4-(dimethylsulfamoyl)phenyl]amino}-4-oxo-4,5-dihydro-1H-pyrazolo [4,3-c]pyridin-1-yl)-3-fluoropiperidine-1-carboxylate], for which the values for the IC50 in experiment [1] and in experiment [2] were 0.12 nM and 0.1 nM, respectively.

As for `Cc1cc(Nc2nn([C@@]3(CC#N)CCCC[C@H]3F)c3cc[nH]c(=O)c23)ccc1C(=O)N1CCC(F)(F)CC1` [Example 5-153, 2-((1R,2R)-1-(3-((4-(4,4-difluoropiperidine-1-carbonyl)-3-methylphenyl)amino)-4-oxo-4,5-dihydro-1H-pyrazolo[4,3-c]pyridin-1-yl)-2-fluorocyclohexyl) acetonitrile], the IC50 in experiment [1] is 0.08 nM; in experiment [2], 0.09 nM.

Consider `CCN1Cc2cc(Nc3nn(C4(CC#N)CCN(C(=O)OC)CC4)c4cc[nH]c(=O)c34)ccc2S1(=O)=O` [Example 5-72, methyl 4-{3-[(2-ethyl-1,1-dioxo-2,3-dihydro-1,2-benzothiazol-5-yl)amino]-4-oxo-1H,4H,5H-pyrazolo [4,3-c]pyridin-1-yl}-4-(cyanomethyl)piperidine-1-carboxylate], for which the results for the half-inhibitory concentration (IC50) in experiment [1] and in experiment [2] were 0.26 nM and 0.06 nM, respectively.

As for `CC(C)(C)NC(=O)[C@@H]1CC[C@@](CC#N)(n2nc(Nc3ccc4c(c3)CN(C(C)(C)C)S4(=O)=O)c3c(=O)[nH]ccc32)CO1` [Example 19-1, (2S,5S)-N-(tert-butyl)-5-(3-((2-(tert-butyl)-1,1-dioxido-2,3-dihydrobenzo[d]isothiazol-5-yl)amino)-4-oxo-4,5-dihydro-1H-pyrazolo[4,3-c]pyridin-1-yl)-5-(cyanomethyl)tetrahydro-2H-pyran-2-carboxamide], the half-maximal inhibitory concentration (IC50) in experiment [1] came out at 1.94 nM; in experiment [2], 0.08 nM.

Take `CC(C)(C)N1Cc2cc(Nc3nn([C@]4(CC#N)CC[C@H](N5CC(F)C5)CC4)c4cc[nH]c(=O)c34)ccc2S1(=O)=O` [Example 18-36]: the half-maximal inhibitory concentration (IC50) in experiment [1] was 6.85 nM; in experiment [2], 0.83 nM.

Consider `N#CC[C@@]1(n2nc(Nc3ccc(C(N4CCCC4)C(F)(F)F)cc3)c3c(=O)[nH]ccc32)CCCOC1` (single isomer, unassigned) [Example 5-198, {(3S)-3-[4-oxo-3-({4-[(1R or 1S)-2,2,2-trifluoro-1-pyrrolidin-1-ylethyl]phenyl}amino)-4,5-dihydro-1H-pyrazolo [4,3-c]pyridin-1-yl]tetrahydro-2H-pyran-3-yl}acetonitrile], for which the figures for the concentration for half-maximal inhibition (IC50) in experiment [1] and in experiment [2] were 0.39 nM and 0.16 nM, respectively.

As for `CS(=O)(=O)c1ccc(Nc2nn(C3(CC#N)CCN(c4ccc(C#N)cn4)CC3)c3cc[nH]c(=O)c23)cc1` [Example 15-2, 6-(4-(cyanomethyl)-4-(3-((4(methylsulfonyl)phenyl)amino)-4-oxo-4,5-dihydro-1H-pyrazolo[4,3-c]pyridin-1-yl)piperidin-1-yl)nicotinonitrile], the IC50 in experiment [1] and in experiment [2] was 0.04 nM in each case.

Regarding `CC(C)(C)N1Cc2cc(Nc3nn(C4(CC#N)CCOCC4)c4cc[nH]c(=O)c34)ccc2S1(=O)=O` [Example 5-251, 2-(4-(3-((2-(tert-butyl)-1,1-dioxido-2,3-dihydrobenzo[d]isothiazol-5-yl)amino)-4-oxo-4,5-dihydro-1H-pyrazolo[4,3-c]pyridin-1-yl)tetrahydro-2H-pyran-4-yl)acetonitrile], the IC50 in experiment [1] was determined as 0.78 nM; in experiment [2], 0.06 nM.

For the compound `CC(C)(C)OC(=O)N1CCC(CC#N)(n2nc(Nc3ccc4c(c3)CN(C3CCN(CC(F)(F)F)CC3)S4(=O)=O)c3c(=O)[nH]ccc32)CC1` [Example 21-15, tert-butyl-4-(cyanomethyl)-4-(3-((1,1-dioxido-2-(1-(2,2,2-trifluoroethyl)piperidin-4-yl)-2,3-dihydrobenzo[d]isothiazol-5-yl)amino)-4-oxo-4,5-dihydro-1H-pyrazolo[4,3-c]pyridin-1-yl)piperidine-1-carboxylate], the concentration for half-maximal inhibition (IC50) in experiment [1] turned out to be 0.65 nM; in experiment [2] it was 0.77 nM.

For `CC(C)(C)OC(=O)[C@@H]1CC[C@@](CC#N)(n2nc(Nc3ccc(S(=O)(=O)N4CCOCC4)cc3)c3c(=O)[nH]ccc32)CO1` [Example 5-203, (2S,5S)-tert-butyl 5-(cyanomethyl)-5-(3-((4-(morpholinosulfonyl)phenyl)amino)-4-oxo-4,5-dihydro-1H-pyrazolo[4,3-c]pyridin-1-yl)tetrahydro-2H-pyran-2-carboxylate], the results for the 50% inhibitory concentration (IC50) in experiment [1] and in experiment [2] were 0.27 nM and 0.15 nM, respectively.

On to `COC(C)(c1ccc(Nc2nn([C@]3(CC#N)CC[C@@H](C(=O)OC(C)(C)C)OC3)c3cc[nH]c(=O)c23)cc1)C(F)(F)F` (single isomer, unassigned) [Example 5-172, (2S,5S)-tert-butyl 5-(cyanomethyl)-5-(4-oxo-3-((4-((S or R)-1,1,1-trifluoro-2-methoxypropan-2-yl)phenyl)amino)-4,5-dihydro-1H-pyrazolo[4,3-c]pyridin-1-yl)tetrahydro-2H-pyran-2-carboxylate], for which the 50% inhibitory concentration (IC50) turned out to be 1.14 nM in experiment [1] and 0.75 nM in experiment [2].

Regarding `Cc1cc(Nc2nn([C@]3(CC#N)CC[C@@H](C(=O)OC(C)(C)C)OC3)c3cc[nH]c(=O)c23)ccc1C(=O)N1CCCC1` [Example 20-7, (2S,5S)-tert-butyl 5-(cyanomethyl)-5-(3-((3-methyl-4-(pyrrolidine-1-carbonyl)phenyl)amino)-4-oxo-4,5-dihydro-1H-pyrazolo[4,3-c]pyridin-1-yl)tetrahydro-2H-pyran-2-carboxylate], the IC50 amounted to 0.36 nM in experiment [1] and 0.09 nM in experiment [2].

Take `CNS(=O)(=O)c1ccc(Nc2nn([C@]3(CC#N)CC[C@@H](C(=O)OC(C)(C)C)OC3)c3cc[nH]c(=O)c23)cc1` [Example 5-94, (2S,5S)-tert-butyl 5-(cyanomethyl)-5-(3-((4-(N-methylsulfamoyl)phenyl)amino)-4-oxo-4,5-dihydro-1H-pyrazolo[4,3-c]pyridin-1-yl)tetrahydro-2H-pyran-2-carboxylate]: the IC50 was determined as 0.18 nM in experiment [1] and 0.04 nM in experiment [2].
